In brackets after ≈: the same amount, converted by molar mass.
Key:
[1] = system: super sensitive Gram-negative Escherichia coli (E. coli) BAS849; experiment: Antibacterial activity, microbroth dilution MIC, E. coli BAS849; format: cell-based; conditions: Escherichia coli; E. coli BAS849, microbroth dilution; read-out: MIC, BAS849
[2] = system: Gram-positive Staphylococcus aureus (S. aureus) 29213; experiment: Antibacterial activity, microbroth dilution MIC, S. aureus 29213; format: cell-based; conditions: Staphylococcus aureus; S. aureus 29213, microbroth dilution; read-out: MIC, 29213
[3] = system: control Gram-negative E. coli 25922 strain; experiment: Antibacterial activity, microbroth dilution MIC, E. coli 25922; format: cell-based, Escherichia coli; conditions: Escherichia coli; E. coli 25922, microbroth dilution; read-out: MIC, 25922

| SMILES | MIC [1] [µg/mL] | MIC [2] [µg/mL] | MIC [3] [µg/mL] |
| --- | --- | --- | --- |
| O=C(O)c1cc(C(=O)O)c(=O)[nH]c1-c1ccc(F)cc1 [Cpd 10, 6-(4-fluorophenyl)-2-oxo-1,2-dihydropyridine-3,5-dicarboxylic acid] | 12.5 to 150 (≈ 45.1 to 541 µM) | 12.5 to 150 (≈ 45.1 to 541 µM) | 12.5 to 150 (≈ 45.1 to 541 µM) |
| CCc1cc(C(=O)O)c(=O)[nH]c1-c1ccc(C#N)cc1 [Cpd 15, 6-(4-cyanophenyl)-5-ethyl-2-oxo-1,2-dihydropyridine-3-carboxylic acid] | 12.5 to 150 (≈ 46.6 to 559 µM) | 12.5 to 150 (≈ 46.6 to 559 µM) | 12.5 to 150 (≈ 46.6 to 559 µM) |
| CCc1cc(C(=O)O)c(=O)[nH]c1-c1cnc(N(C)C)nc1 [Cpd 19, 6-[2-(dimethylamino)pyrimidin-5-yl]-5-ethyl-2-oxo-1,2-dihydropyridine-3-carboxylic acid] | 12.5 to 150 (≈ 43.4 to 520 µM) | 12.5 to 150 (≈ 43.4 to 520 µM) | 12.5 to 150 (≈ 43.4 to 520 µM) |
| O=C(O)c1c(O)cc(-c2ccc(N3CCCC3)cc2)[nH]c1=O [Cpd 21, 4-hydroxy-2-oxo-6-[4-(pyrrolidin-1-yl)phenyl]-1,2-dihydropyridine-3-carboxylic acid] | 3.5 to 12.5 (≈ 11.7 to 41.6 µM) | 3.5 to 12.5 (≈ 11.7 to 41.6 µM) | 12.5 to 150 (≈ 41.6 to 499 µM) |
| CCc1cc(C(=O)O)c(=O)[nH]c1-c1ccc(-c2nnn[nH]2)cc1 [Cpd 23, 5-ethyl-2-oxo-6-[4-(1H-tetrazol-5-yl)phenyl]-1,2-dihydropyridine-3-carboxylic acid] | 12.5 to 150 (≈ 40.2 to 482 µM) | 12.5 to 150 (≈ 40.2 to 482 µM) | 12.5 to 150 (≈ 40.2 to 482 µM) |
| CCc1cc(C(=O)O)c(=O)[nH]c1-c1ccc(F)cc1 [Cpd 26, 5-ethyl-6-(4-fluorophenyl)-2-oxo-1,2-dihydropyridine-3-carboxylic acid] | 12.5 to 150 (≈ 47.8 to 574 µM) | 12.5 to 150 (≈ 47.8 to 574 µM) | 12.5 to 150 (≈ 47.8 to 574 µM) |
| CCc1cc(C(=O)O)c(=O)[nH]c1-c1ccc(C)cc1 [Cpd 27, 5-ethyl-6-(4-methylphenyl)-2-oxo-1,2-dihydropyridine-3-carboxylic acid] | < 1 | 12.5 to 150 (≈ 48.6 to 583 µM) | 12.5 to 150 (≈ 48.6 to 583 µM) |
| CCc1c(-c2ccc(C)cc2)[nH]c(=O)c(C(=O)O)c1O [Cpd 28, 5-ethyl-4-hydroxy-6-(4-methylphenyl)-2-oxo-1,2-dihydropyridine-3-carboxylic acid] | < 1 | 3.5 to 12.5 (≈ 12.8 to 45.7 µM) | 12.5 to 150 (≈ 45.7 to 549 µM) |
| CCc1c(-c2ccccc2N2CCCCC2)[nH]c(=O)c(C(=O)O)c1O [Cpd 29, 5-ethyl-4-hydroxy-2-oxo-6-[2-(piperidin-1-yl)phenyl]-1,2-dihydropyridine-3-carboxylic acid] | 1 to 3.5 (≈ 2.92 to 10.2 µM) | 1 to 3.5 (≈ 2.92 to 10.2 µM) | 12.5 to 150 (≈ 36.5 to 438 µM) |
| CCc1cc(C(=O)O)c(=O)[nH]c1-c1ccccc1N1CCCCC1 [Cpd 31, 5-ethyl-2-oxo-6-[2-(piperidin-1-yl)phenyl]-1,2-dihydropyridine-3-carboxylic acid] | 12.5 to 150 (≈ 38.3 to 460 µM) | 12.5 to 150 (≈ 38.3 to 460 µM) | 12.5 to 150 (≈ 38.3 to 460 µM) |
| CCc1c(-c2ccc(OC)cc2C)[nH]c(=O)c(C(=O)O)c1O [Cpd 32, 5-ethyl-4-hydroxy-6-(4-methoxy-2-methylphenyl)-2-oxo-1,2-dihydropyridine-3-carboxylic acid] | 3.5 to 12.5 (≈ 11.5 to 41.2 µM) | 3.5 to 12.5 (≈ 11.5 to 41.2 µM) | 12.5 to 150 (≈ 41.2 to 495 µM) |
| CCc1cc(C(=O)O)c(=O)[nH]c1-c1ccc(OC)cc1C [Cpd 33, 5-ethyl-6-(4-methoxy-2-methylphenyl)-2-oxo-1,2-dihydropyridine-3-carboxylic acid] | 12.5 to 150 (≈ 43.5 to 522 µM) | 12.5 to 150 (≈ 43.5 to 522 µM) | 12.5 to 150 (≈ 43.5 to 522 µM) |
| CCc1cc(C(=O)O)c(=O)[nH]c1-c1ccc(OC)cc1OC [Cpd 34, 6-(2,4-dimethoxyphenyl)-5-ethyl-2-oxo-1,2-dihydropyridine-3-carboxylic acid] | 12.5 to 150 (≈ 41.2 to 495 µM) | 12.5 to 150 (≈ 41.2 to 495 µM) | 12.5 to 150 (≈ 41.2 to 495 µM) |
| CCc1cc(C(=O)O)c(=O)[nH]c1-c1ccc(OC)cc1N1CCCC1 [Cpd 35, 5-ethyl-6-[4-methoxy-2-(pyrrolidin-1-yl)phenyl]-2-oxo-1,2-dihydropyridine-3-carboxylic acid] | 12.5 to 150 (≈ 36.5 to 438 µM) | 12.5 to 150 (≈ 36.5 to 438 µM) | 12.5 to 150 (≈ 36.5 to 438 µM) |
| CCc1c(-c2ccc(OC)cc2OC)[nH]c(=O)c(C(=O)O)c1O [Cpd 36, 6-(2,4-dimethoxyphenyl)-5-ethyl-4-hydroxy-2-oxo-1,2-dihydropyridine-3-carboxylic acid] | 3.5 to 12.5 (≈ 11 to 39.1 µM) | 12.5 to 150 (≈ 39.1 to 470 µM) | 12.5 to 150 (≈ 39.1 to 470 µM) |
| CCc1cc(C(=O)O)c(=O)[nH]c1-c1ccc(N2CCCC2)cc1C [Cpd 37, 5-ethyl-6-[2-methyl-4-(pyrrolidin-1-yl)phenyl]-2-oxo-1,2-dihydropyridine-3-carboxylic acid] | 12.5 to 150 (≈ 38.3 to 460 µM) | 12.5 to 150 (≈ 38.3 to 460 µM) | 12.5 to 150 (≈ 38.3 to 460 µM) |
| CCc1c(-c2ccc(N3CCCC3)cc2C)[nH]c(=O)c(C(=O)O)c1O [Cpd 39, 5-ethyl-4-hydroxy-6-[2-methyl-4-(pyrrolidin-1-yl)phenyl]-2-oxo-1,2-dihydropyridine-3-carboxylic acid] | 3.5 to 12.5 (≈ 10.2 to 36.5 µM) | 1 to 3.5 (≈ 2.92 to 10.2 µM) | 12.5 to 150 (≈ 36.5 to 438 µM) |

| SMILES | MIC [1] [µg/mL] | MIC [2] [µg/mL] | MIC [3] [µg/mL] |
| --- | --- | --- | --- |
| CCc1cc(C(=O)O)c(=O)[nH]c1-c1ccc(OC)cc1N(C)C [Cpd 40, 6-[2-(dimethylamino)-4-methoxyphenyl]-5-ethyl-2-oxo-1,2-dihydropyridine-3-carboxylic acid] | 12.5 to 150 (≈ 39.5 to 474 µM) | 12.5 to 150 (≈ 39.5 to 474 µM) | 12.5 to 150 (≈ 39.5 to 474 µM) |
| CCc1cc(C(=O)O)c(=O)[nH]c1-c1ccc(N2CCCCC2)cc1F [Cpd 43, 5-ethyl-6-[2-fluoro-4-(piperidin-1-yl)phenyl]-2-oxo-1,2-dihydropyridine-3-carboxylic acid] | < 1 | 12.5 to 150 (≈ 36.3 to 436 µM) | 12.5 to 150 (≈ 36.3 to 436 µM) |
| CCc1cc(C(=O)O)c(=O)[nH]c1-c1ccccc1N1CCCC1 [Cpd 46, 5-ethyl-2-oxo-6-[2-(pyrrolidin-1-yl)phenyl]-1,2-dihydropyridine-3-carboxylic acid] | 12.5 to 150 (≈ 40 to 480 µM) | 12.5 to 150 (≈ 40 to 480 µM) | 12.5 to 150 (≈ 40 to 480 µM) |
| CCc1c(-c2ccccc2N2CCCC2)[nH]c(=O)c(C(=O)O)c1O [Cpd 47, 5-ethyl-4-hydroxy-2-oxo-6-[2-(pyrrolidin-1-yl)phenyl]-1,2-dihydropyridine-3-carboxylic acid] | 1 to 3.5 (≈ 3.05 to 10.7 µM) | 3.5 to 12.5 (≈ 10.7 to 38.1 µM) | 12.5 to 150 (≈ 38.1 to 457 µM) |
| CCc1c(-c2ccc(OC)cc2N2CCCC2)[nH]c(=O)c(C(=O)O)c1O [Cpd 48, 5-ethyl-4-hydroxy-6-[4-methoxy-2-(pyrrolidin-1-yl)phenyl]-2-oxo-1,2-dihydropyridine-3-carboxylic acid] | 3.5 to 12.5 (≈ 9.77 to 34.9 µM) | 3.5 to 12.5 (≈ 9.77 to 34.9 µM) | 12.5 to 150 (≈ 34.9 to 419 µM) |
| CCc1c(-c2ccc(N3CCCCC3)cc2C)[nH]c(=O)c(C(=O)O)c1O [Cpd 51, 5-ethyl-4-hydroxy-6-[2-methyl-4-(piperidin-1-yl)phenyl]-2-oxo-1,2-dihydropyridine-3-carboxylic acid] | 3.5 to 12.5 (≈ 9.82 to 35.1 µM) | 3.5 to 12.5 (≈ 9.82 to 35.1 µM) | 12.5 to 150 (≈ 35.1 to 421 µM) |
| CCc1cc(C(=O)O)c(=O)[nH]c1-c1ccc(N2CCCCC2)cc1C [Cpd 52, 5-ethyl-6-[2-methyl-4-(piperidin-1-yl)phenyl]-2-oxo-1,2-dihydropyridine-3-carboxylic acid] | 12.5 to 150 (≈ 36.7 to 441 µM) | 12.5 to 150 (≈ 36.7 to 441 µM) | 12.5 to 150 (≈ 36.7 to 441 µM) |
| CCc1cc(C(=O)O)c(=O)[nH]c1-c1ccccc1N(C)C [Cpd 54, 6-[2-(dimethylamino)phenyl]-5-ethyl-2-oxo-1,2-dihydropyridine-3-carboxylic acid] | 12.5 to 150 (≈ 43.7 to 524 µM) | 12.5 to 150 (≈ 43.7 to 524 µM) | 12.5 to 150 (≈ 43.7 to 524 µM) |
| CCc1c(-c2ccc(N(C)C)cc2C)[nH]c(=O)c(C(=O)O)c1O [Cpd 56, 6-[4-(dimethylamino)-2-methylphenyl]-5-ethyl-4-hydroxy-2-oxo-1,2-dihydropyridine-3-carboxylic acid] | 3.5 to 12.5 (≈ 11.1 to 39.5 µM) | 3.5 to 12.5 (≈ 11.1 to 39.5 µM) | 12.5 to 150 (≈ 39.5 to 474 µM) |
| CCc1cc(C(=O)O)c(=O)[nH]c1-c1ccc(N(C)C)cc1C [Cpd 57, 6-[4-(dimethylamino)-2-methylphenyl]-5-ethyl-2-oxo-1,2-dihydropyridine-3-carboxylic acid] | 12.5 to 150 (≈ 41.6 to 499 µM) | 12.5 to 150 (≈ 41.6 to 499 µM) | 12.5 to 150 (≈ 41.6 to 499 µM) |
| CCc1c(-c2ccccc2N(C)C)[nH]c(=O)c(C(=O)O)c1O [Cpd 58, 6-[2-(dimethylamino)phenyl]-5-ethyl-4-hydroxy-2-oxo-1,2-dihydropyridine-3-carboxylic acid] | 3.5 to 12.5 (≈ 11.6 to 41.3 µM) | 3.5 to 12.5 (≈ 11.6 to 41.3 µM) | 12.5 to 150 (≈ 41.3 to 496 µM) |
| CCc1cc(C(=O)O)c(=O)[nH]c1-c1ccc(N2CCCCC2)cc1OC [Cpd 59, 5-ethyl-6-[2-methoxy-4-(piperidin-1-yl)phenyl]-2-oxo-1,2-dihydropyridine-3-carboxylic acid] | 12.5 to 150 (≈ 35.1 to 421 µM) | 12.5 to 150 (≈ 35.1 to 421 µM) | 12.5 to 150 (≈ 35.1 to 421 µM) |
| CCc1c(-c2ccc(OC)cc2N(C)C)[nH]c(=O)c(C(=O)O)c1O [Cpd 60, 6-[2-(dimethylamino)-4-methoxyphenyl]-5-ethyl-4-hydroxy-2-oxo-1,2-dihydropyridine-3-carboxylic acid] | 3.5 to 12.5 (≈ 10.5 to 37.6 µM) | 3.5 to 12.5 (≈ 10.5 to 37.6 µM) | 12.5 to 150 (≈ 37.6 to 451 µM) |
| CCc1c(-c2ccc(N(C)C)cc2OC)[nH]c(=O)c(C(=O)O)c1O [Cpd 61, 6-[4-(dimethylamino)-2-methoxyphenyl]-5-ethyl-4-hydroxy-2-oxo-1,2-dihydropyridine-3-carboxylic acid] | 3.5 to 12.5 (≈ 10.5 to 37.6 µM) | 3.5 to 12.5 (≈ 10.5 to 37.6 µM) | 12.5 to 150 (≈ 37.6 to 451 µM) |
| CCc1cc(C(=O)O)c(=O)[nH]c1-c1ccc(N(C)C)cc1OC [Cpd 62, 6-[4-(dimethylamino)-2-methoxyphenyl]-5-ethyl-2-oxo-1,2-dihydropyridine-3-carboxylic acid] | 12.5 to 150 (≈ 39.5 to 474 µM) | 12.5 to 150 (≈ 39.5 to 474 µM) | 12.5 to 150 (≈ 39.5 to 474 µM) |
| CCc1c(-c2ccc(N(C)C)c(C)c2)[nH]c(=O)c(C(=O)O)c1O [Cpd 63, 6-[4-(dimethylamino)-3-methylphenyl]-5-ethyl-4-hydroxy-2-oxo-1,2-dihydropyridine-3-carboxylic acid] | 1 to 3.5 (≈ 3.16 to 11.1 µM) | 3.5 to 12.5 (≈ 11.1 to 39.5 µM) | 12.5 to 150 (≈ 39.5 to 474 µM) |
| CCc1cc(C(=O)O)c(=O)[nH]c1-c1ccc(N(C)C)c(OC)c1 [Cpd 64, 6-[4-(dimethylamino)-3-methoxyphenyl]-5-ethyl-2-oxo-1,2-dihydropyridine-3-carboxylic acid] | 3.5 to 12.5 (≈ 11.1 to 39.5 µM) | 12.5 to 150 (≈ 39.5 to 474 µM) | 12.5 to 150 (≈ 39.5 to 474 µM) |

Source: patent US9650395B2, “Antibacterial compounds and methods for use” (PTC Therapeutics, Inc., priority 2011, dated 2017)
